Tests used:
[1] = system: Chrysosporium keratinophilum; test: Agar plate disc-diffusion, antifungal activity (inhibition zone); type: cell-based; settings: fungal, 72 hours, DMSO zone subtracted; for inhibition zone, Chrysosporium keratinophilum, A: A = concentration of comp. = 10,000 μL; for inhibition zone, Chrysosporium keratinophilum, B: B = concentration of comp. = 30,000 μL; for inhibition zone, Chrysosporium keratinophilum, C: C = concentration of comp. = 50,000 μL
Experimental: (§1) The agar plate disc-diffusion method was applied. […] The discs were then placed onto the surface of agar plates (nutrient agar for bacteria and Sabouraud's dextrose agar for fungi) seeded with the test organism. Each plate contained 15 mL of the agar medium, previously seeded with 0.2 mL of the broth culture of each organism pregrown for 18 hours. The plates were incubated at 37° C. for 48 hours, and 72 hours for fungi. The inhibition zones was measured in mm. Discs impregnated with DMSO were used as a control, and its inhibition zone was subtracted from the tested compound actual inhibition zone.

[2] = system: Aspergillus flavus; test: as above; type: cell-based; settings: fungal, 72 hours, DMSO zone subtracted; for inhibition zone, Aspergillus flavus, A: A = concentration of comp. = 10,000 μL; for inhibition zone, Aspergillus flavus, B: B = concentration of comp. = 30,000 μL; for inhibition zone, Aspergillus flavus, C: C = concentration of comp. = 50,000 μL
Experimental: as §1

[3] = system: Escherichia coli; test: Agar plate disc-diffusion, antibacterial activity (inhibition zone); type: cell-based; settings: Gram negative, DMSO zone subtracted; for inhibition zone, Escherichia coli, A: A = concentration of comp. = 10,000 μL; for inhibition zone, Escherichia coli, B: B = concentration of comp. = 30,000 μL; for inhibition zone, Escherichia coli, C: C = concentration of comp. = 50,000 μL
Experimental: as §1

[4] = system: Staphylococcus aureus; test: as above; type: cell-based; settings: Gram positive, DMSO zone subtracted; for inhibition zone, Staphylococcus aureus, A: A = concentration of comp. = 10,000 μL; for inhibition zone, Staphylococcus aureus, B: B = concentration of comp. = 30,000 μL; for inhibition zone, Staphylococcus aureus, C: C = concentration of comp. = 50,000 μL
Experimental: as §1

[5] = system: Pseudomonas aeruginosa; test: as above; type: cell-based; settings: Gram negative, DMSO zone subtracted; for inhibition zone, Pseudomonas aeruginosa, A: A = concentration of comp. = 10,000 μL; for inhibition zone, Pseudomonas aeruginosa, B: B = concentration of comp. = 30,000 μL; for inhibition zone, Pseudomonas aeruginosa, C: C = concentration of comp. = 50,000 μL
Experimental: as §1

[6] = system: Bacillus Cereus; test: as above; type: cell-based; settings: Gram positive, DMSO zone subtracted; for inhibition zone, Bacillus Cereus, A: A = concentration of comp. = 10,000 μL; for inhibition zone, Bacillus Cereus, B: B = concentration of comp. = 30,000 μL; for inhibition zone, Bacillus Cereus, C: C = concentration of comp. = 50,000 μL
Experimental: as §1

| melting point [°C] | Structure (SMILES) | inhibition zone, Chrysosporium keratinophilum, A [1] [mm] | inhibition zone, Chrysosporium keratinophilum, B [1] [mm] | inhibition zone, Chrysosporium keratinophilum, C [1] [mm] | inhibition zone, Aspergillus flavus, A [2] [mm] | inhibition zone, Aspergillus flavus, B [2] [mm] | inhibition zone, Aspergillus flavus, C [2] [mm] | inhibition zone, Escherichia coli, A [3] [mm] | inhibition zone, Escherichia coli, B [3] [mm] | inhibition zone, Escherichia coli, C [3] [mm] | inhibition zone, Staphylococcus aureus, A [4] [mm] | inhibition zone, Staphylococcus aureus, B [4] [mm] | inhibition zone, Staphylococcus aureus, C [4] [mm] | inhibition zone, Pseudomonas aeruginosa, A [5] [mm] | inhibition zone, Pseudomonas aeruginosa, B [5] [mm] | inhibition zone, Pseudomonas aeruginosa, C [5] [mm] | inhibition zone, Bacillus Cereus, A [6] [mm] | inhibition zone, Bacillus Cereus, B [6] [mm] | inhibition zone, Bacillus Cereus, C [6] [mm] |
| --- | --- | --- | --- | --- | --- | --- | --- | --- | --- | --- | --- | --- | --- | --- | --- | --- | --- | --- | --- |
| – | O=C(O)c1cn(C2CC2)c2cc(N3CCNCC3)c(F)cc2c1=O [Cip., ciprofloxacin, reference compound] | 30 | 33 | 55 | 28 | 31 | 43 | 30 | 39 | 60 | 43 | 44 | 53 | 29 | 30 | 53 | 29 | 31 | 42 |
| 155 to 156 | N/C(Cc1nc2ccccc2o1)=N\OC(=O)c1cccnc1 [compound 3, 2-(benzo[d]oxazol-2-yl)-N′-(nicotinoyloxy)acetimidamide] | 26 | 29 | 48 | 21 | 24 | 32 | 26 | 33 | 47 | 28 | 31 | 40 | 23 | 25 | 40 | 26 | 29 | 37 |
